Measured values as given in ChEMBL document CHEMBL5579836, “Extensive targeting of chemical space at the prime side of ketoamide inhibitors of rhomboid proteases by branched substituents empowers their selectivity and potency” (Eur J Med Chem, 2024).
Starred links: 1 amine or outer side, 2 acyl side, 3 side chain; linkers in the order of their positions; H or OH if unused. Non-standard residues stand in square brackets, D forms with d. Residues, ends and D or L forms follow the SMILES beside them. *: point of attachment. Pheol(OBn) = c1ccc(COC[C@H](Cc2ccccc2)N*)cc1; NH(4-phenylbutyl) = c1ccc(CCCCN*)cc1; X1 = C[C@H](N[*:1])C(=O)C(=O)[*:2]

Tests used:
[1] = Inhibition of Strep-tagged recombinant human RHBDL2 extracted from Expi293 cells using KSp118 as substrate incubated for 1 hr by fluorescence based assay; type: cell-free
Rhomboid protease GlpG [2] = target: T1, Rhomboid protease GlpG (Escherichia coli (strain K12), UniProt P09391); assay: Inhibition of Escherichia coli GlpG extracted from Escherichia coli C43(DE3) using KSp96 as substrate incubated for 1 hr by fluorescence based assay; conditions: for Ki: read-out: Ki(app)
T1 sequence (P09391 whole entry): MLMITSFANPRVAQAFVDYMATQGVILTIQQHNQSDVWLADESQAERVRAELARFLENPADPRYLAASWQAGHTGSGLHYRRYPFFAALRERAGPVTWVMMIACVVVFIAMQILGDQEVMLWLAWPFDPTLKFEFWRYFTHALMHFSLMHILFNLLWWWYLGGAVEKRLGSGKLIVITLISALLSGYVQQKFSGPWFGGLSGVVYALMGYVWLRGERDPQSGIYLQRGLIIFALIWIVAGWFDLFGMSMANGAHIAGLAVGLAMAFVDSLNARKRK

Rhomboid protease GlpG [3] = target: T1, Rhomboid protease GlpG; assay: Inhibition of GlpG in wild-type Escherichia coli MC4100 using MBP-Flag-LacYTMD2-Trx as substrate
[4] = Selectivity index, ratio of IC50 for rhomboid (unknown origin) to IC50 for Escherichia coli GlpG extracted from Escherichia coli C43(DE3) using KSp96 as substrate
[5] = Selectivity index, ratio of IC50 for rhomboid (unknown origin) to IC50 for recombinant human PARL using KSp106 as substrate
[6] = Selectivity index, ratio of IC50 for rhomboid (unknown origin) to IC50 for Strep-tagged recombinant human RHBDL2 extracted from Expi293 cells using KSp118 as substrate
[7] = target: T2, Presenilin-associated rhomboid-like protein, mitochondrial (Homo sapiens, UniProt Q9H300); assay: Inhibition of tetracycline-inducible FLAG-tagged human PARL stably transfected in HEK293T harboring FITR/PARL KO; type: cell-based
T2 sequence (Q9H300 whole entry): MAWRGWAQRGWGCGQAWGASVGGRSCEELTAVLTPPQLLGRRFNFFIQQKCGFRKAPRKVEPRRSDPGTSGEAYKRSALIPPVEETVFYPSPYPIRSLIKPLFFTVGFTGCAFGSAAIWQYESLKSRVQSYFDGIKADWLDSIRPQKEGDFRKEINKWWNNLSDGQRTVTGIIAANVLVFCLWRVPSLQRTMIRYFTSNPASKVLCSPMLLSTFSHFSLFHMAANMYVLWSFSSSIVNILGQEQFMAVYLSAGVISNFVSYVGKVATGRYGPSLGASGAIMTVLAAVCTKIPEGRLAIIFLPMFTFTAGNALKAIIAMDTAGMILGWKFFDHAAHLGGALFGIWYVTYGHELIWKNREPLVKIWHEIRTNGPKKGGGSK

Row | IC50 [1] [nM] | IC50 (Rhomboid protease GlpG [2]) [nM] | EC50 (Rhomboid protease GlpG [3]) [nM] | SMILES | other results
1 | 768 | 5.6 |  | CC(=O)N1CCC[C@H]1C(=O)N[C@H](C(=O)N[C@@H](C)C(=O)N[C@@H](CCCCN)C(=O)N[C@@H](C)C(=O)C(=O)N[C@H](COCc1ccccc1)Cc1ccccc1)C(C)C (Ac-PVAK[X1]-{Pheol(OBn)}) | 
2 |  | 2.3 | 123 | CC(=O)N[C@H](C(=O)N[C@@H](CCCNC(=N)N)C(=O)N[C@@H](Cc1c[nH]cn1)C(=O)N[C@@H](C)C(=O)C(=O)NC(CCCc1ccccc1)Cc1ccccc1)C(C)C (mixture of isomers) | Ki (Rhomboid protease GlpG [2]): 1.3 nM
3 |  | 56.1 | 1610 | CC(=O)N[C@H](C(=O)N[C@@H](CCCNC(=N)N)C(=O)N[C@@H](Cc1c[nH]cn1)C(=O)N[C@@H](C)C(=O)C(=O)NCCc1ccccc1)C(C)C | 
4 | 6210 | 44.4 | 1470 | CC(=O)N[C@H](C(=O)N[C@@H](CCCNC(=N)N)C(=O)N[C@@H](Cc1c[nH]cn1)C(=O)N[C@@H](C)C(=O)C(=O)NCCCCc1ccccc1)C(C)C | 
5 | 712 | 330 |  | CC(=O)N1CCC[C@H]1C(=O)N[C@H](C(=O)N[C@@H](C)C(=O)N[C@@H](CCCCN)C(=O)N[C@@H](C)C(=O)C(=O)NCCCCc1ccccc1)C(C)C (Ac-PVAK[X1]-{NH(4-phenylbutyl)}) | 
6 |  | 2.3 | 337 | CC(C)CC(=O)N[C@@H](CCCNC(=N)N)C(=O)N[C@@H](Cc1c[nH]cn1)C(=O)N[C@@H](C)C(=O)C(=O)N[C@H](COCc1ccccc1)Cc1ccccc1 | 
7 | 32800 | 300 |  | CC(=O)N[C@@H](C)C(=O)N[C@H](C(=O)N[C@@H](Cc1ccccc1)C(=O)N[C@@H](CC(C)C)C(=O)N[C@@H](C)C(=O)C(=O)NCCCCc1ccccc1)C(C)C (Ac-AVFL[X1]-{NH(4-phenylbutyl)}) | Ratio IC50 [4]: 10.6; Ratio IC50 [5]: 1; Ratio IC50 [6]: 1150; EC50 [7]: 445 nM
8 |  | 1.9 | 131 | CCCCc1ccc(OCC[C@H](Cc2ccccc2)NC(=O)C(=O)[C@H](C)NC(=O)[C@H](Cc2c[nH]cn2)NC(=O)[C@H](CCCNC(=N)N)NC(=O)[C@@H](NC(C)=O)C(C)C)cc1 | Ki (Rhomboid protease GlpG [2]): 0.7 nM
9 |  | 2 | 424 | C[C@H](NC(=O)[C@H](Cc1c[nH]cn1)NC(=O)[C@H](CCCNC(=N)N)NC(=O)CCc1ccccc1)C(=O)C(=O)N[C@H](COCc1ccccc1)Cc1ccccc1 | 
10 | 55500 | 14.8 |  | CC(=O)N[C@@H](C)C(=O)N[C@H](C(=O)N[C@@H](Cc1ccccc1)C(=O)N[C@@H](CC(C)C)C(=O)N[C@@H](C)C(=O)C(=O)N[C@H](COCc1ccccc1)Cc1ccccc1)C(C)C (Ac-AVFL[X1]-{Pheol(OBn)}) | 
11 | 236 |  |  | CC(C)CC(=O)N[C@H](C(=O)N[C@@H](C)C(=O)N[C@@H](CCCCN)C(=O)N[C@@H](C)C(=O)C(=O)NCCCCc1ccccc1)C(C)C | 

Row | SMILES | IC50 [1] [nM] | IC50 (Rhomboid protease GlpG [2]) [nM] | EC50 (Rhomboid protease GlpG [3]) [nM] | other results
12 | CC(=O)N[C@H](C(=O)N[C@@H](CCCNC(=N)N)C(=O)N[C@@H](Cc1c[nH]cn1)C(=O)N[C@@H](C)C(=O)C(=O)N[C@H](COCc1ccccc1)Cc1ccccc1)C(C)C | 5390 | 2.5 | 173 | Ki (Rhomboid protease GlpG [2]): 1.4 nM
